This note sets out measurements from ChEMBL document CHEMBL3108683, “An Accessible Chiral Linker to Enhance Potency and Selectivity of Neuronal Nitric Oxide Synthase Inhibitors” (ACS Med Chem Lett, 2014).

One test deals with Nitric oxide synthase 1 (Rattus norvegicus, UniProt P29476). Description: Inhibition of rat recombinant nNOS overexpressed in Escherichia coli using L-arginine as substrate assessed as formation of NO-hemoglobin complex measured up to 180 seconds by hemoglobin capture assay.
For another test, the target named is T1, Nitric oxide synthase 3 (Bos taurus, UniProt P29473).
T1 sequence (P29473 whole entry): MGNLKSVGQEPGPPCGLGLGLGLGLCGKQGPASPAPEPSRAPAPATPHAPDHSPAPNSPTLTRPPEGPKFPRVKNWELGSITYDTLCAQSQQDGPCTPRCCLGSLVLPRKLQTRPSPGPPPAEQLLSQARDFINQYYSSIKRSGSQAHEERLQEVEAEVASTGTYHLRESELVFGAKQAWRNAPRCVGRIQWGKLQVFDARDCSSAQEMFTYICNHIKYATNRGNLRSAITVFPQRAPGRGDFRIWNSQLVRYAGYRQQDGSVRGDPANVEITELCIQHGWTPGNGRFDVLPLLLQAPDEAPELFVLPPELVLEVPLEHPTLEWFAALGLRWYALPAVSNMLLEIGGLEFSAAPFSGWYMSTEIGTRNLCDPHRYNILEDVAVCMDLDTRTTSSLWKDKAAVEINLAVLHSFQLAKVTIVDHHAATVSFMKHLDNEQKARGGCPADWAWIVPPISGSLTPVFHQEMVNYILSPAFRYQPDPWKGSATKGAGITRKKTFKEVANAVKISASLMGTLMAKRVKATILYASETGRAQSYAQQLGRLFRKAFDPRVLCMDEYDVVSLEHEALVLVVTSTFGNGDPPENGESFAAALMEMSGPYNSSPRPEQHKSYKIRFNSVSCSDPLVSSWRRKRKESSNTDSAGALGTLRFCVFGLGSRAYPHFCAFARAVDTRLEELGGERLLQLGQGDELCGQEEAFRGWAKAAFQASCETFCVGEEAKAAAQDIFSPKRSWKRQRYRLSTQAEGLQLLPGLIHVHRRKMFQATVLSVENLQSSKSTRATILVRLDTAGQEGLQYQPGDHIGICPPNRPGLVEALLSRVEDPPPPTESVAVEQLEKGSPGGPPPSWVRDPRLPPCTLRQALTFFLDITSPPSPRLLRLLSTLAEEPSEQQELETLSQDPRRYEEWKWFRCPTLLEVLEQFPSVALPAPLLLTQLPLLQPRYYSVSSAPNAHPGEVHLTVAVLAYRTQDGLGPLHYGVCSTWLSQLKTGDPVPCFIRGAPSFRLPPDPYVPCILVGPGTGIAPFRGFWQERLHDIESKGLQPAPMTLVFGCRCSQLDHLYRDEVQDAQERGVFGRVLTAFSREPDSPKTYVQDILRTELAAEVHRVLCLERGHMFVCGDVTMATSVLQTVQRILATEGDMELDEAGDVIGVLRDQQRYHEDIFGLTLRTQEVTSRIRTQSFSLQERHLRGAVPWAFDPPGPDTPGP
The test can be described thus: Inhibition of bovine recombinant eNOS overexpressed in Escherichia coli using L-arginine as substrate assessed as formation of NO-hemoglobin complex measured up to 180 seconds by hemoglobin capture assay.

For test [1], the target named is T2, Nitric oxide synthase, inducible (Mus musculus, UniProt P29477).
T2 sequence (P29477 whole entry): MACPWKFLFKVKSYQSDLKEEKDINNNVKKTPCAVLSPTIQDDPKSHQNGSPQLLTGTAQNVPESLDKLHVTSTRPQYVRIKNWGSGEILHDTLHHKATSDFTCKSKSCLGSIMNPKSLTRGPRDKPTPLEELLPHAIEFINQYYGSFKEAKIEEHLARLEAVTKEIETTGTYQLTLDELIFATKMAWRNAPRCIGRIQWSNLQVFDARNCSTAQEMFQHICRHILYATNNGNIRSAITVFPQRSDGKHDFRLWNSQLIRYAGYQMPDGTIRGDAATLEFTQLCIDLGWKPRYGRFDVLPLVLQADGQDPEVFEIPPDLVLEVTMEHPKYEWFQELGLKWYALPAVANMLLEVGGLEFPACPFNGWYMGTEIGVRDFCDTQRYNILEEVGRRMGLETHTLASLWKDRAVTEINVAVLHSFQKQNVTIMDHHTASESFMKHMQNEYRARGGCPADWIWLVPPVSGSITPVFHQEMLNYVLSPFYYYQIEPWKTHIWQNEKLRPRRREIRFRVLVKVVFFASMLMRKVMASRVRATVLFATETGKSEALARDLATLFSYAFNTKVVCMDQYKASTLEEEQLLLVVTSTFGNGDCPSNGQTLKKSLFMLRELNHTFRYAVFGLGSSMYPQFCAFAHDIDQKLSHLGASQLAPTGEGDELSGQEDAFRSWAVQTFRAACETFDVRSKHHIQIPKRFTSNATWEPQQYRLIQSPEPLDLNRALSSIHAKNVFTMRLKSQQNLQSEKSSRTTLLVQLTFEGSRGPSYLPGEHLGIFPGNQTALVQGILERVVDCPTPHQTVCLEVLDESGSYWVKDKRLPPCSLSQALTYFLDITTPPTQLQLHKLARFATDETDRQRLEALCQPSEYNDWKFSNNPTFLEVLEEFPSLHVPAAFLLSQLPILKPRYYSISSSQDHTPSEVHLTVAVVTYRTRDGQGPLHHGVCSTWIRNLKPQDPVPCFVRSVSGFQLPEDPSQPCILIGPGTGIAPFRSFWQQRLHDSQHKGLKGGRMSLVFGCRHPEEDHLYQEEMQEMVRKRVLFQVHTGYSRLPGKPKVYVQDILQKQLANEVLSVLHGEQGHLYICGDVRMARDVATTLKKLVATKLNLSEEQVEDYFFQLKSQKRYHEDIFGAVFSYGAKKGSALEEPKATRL
Description: Inhibition of mouse recombinant iNOS overexpressed in Escherichia coli using L-arginine as substrate assessed as formation of NO-hemoglobin complex measured up to 180 seconds by hemoglobin capture assay.

Molecules are shown by their SMILES.

Chain of Nitric oxide synthase 1 (P29476 whole entry): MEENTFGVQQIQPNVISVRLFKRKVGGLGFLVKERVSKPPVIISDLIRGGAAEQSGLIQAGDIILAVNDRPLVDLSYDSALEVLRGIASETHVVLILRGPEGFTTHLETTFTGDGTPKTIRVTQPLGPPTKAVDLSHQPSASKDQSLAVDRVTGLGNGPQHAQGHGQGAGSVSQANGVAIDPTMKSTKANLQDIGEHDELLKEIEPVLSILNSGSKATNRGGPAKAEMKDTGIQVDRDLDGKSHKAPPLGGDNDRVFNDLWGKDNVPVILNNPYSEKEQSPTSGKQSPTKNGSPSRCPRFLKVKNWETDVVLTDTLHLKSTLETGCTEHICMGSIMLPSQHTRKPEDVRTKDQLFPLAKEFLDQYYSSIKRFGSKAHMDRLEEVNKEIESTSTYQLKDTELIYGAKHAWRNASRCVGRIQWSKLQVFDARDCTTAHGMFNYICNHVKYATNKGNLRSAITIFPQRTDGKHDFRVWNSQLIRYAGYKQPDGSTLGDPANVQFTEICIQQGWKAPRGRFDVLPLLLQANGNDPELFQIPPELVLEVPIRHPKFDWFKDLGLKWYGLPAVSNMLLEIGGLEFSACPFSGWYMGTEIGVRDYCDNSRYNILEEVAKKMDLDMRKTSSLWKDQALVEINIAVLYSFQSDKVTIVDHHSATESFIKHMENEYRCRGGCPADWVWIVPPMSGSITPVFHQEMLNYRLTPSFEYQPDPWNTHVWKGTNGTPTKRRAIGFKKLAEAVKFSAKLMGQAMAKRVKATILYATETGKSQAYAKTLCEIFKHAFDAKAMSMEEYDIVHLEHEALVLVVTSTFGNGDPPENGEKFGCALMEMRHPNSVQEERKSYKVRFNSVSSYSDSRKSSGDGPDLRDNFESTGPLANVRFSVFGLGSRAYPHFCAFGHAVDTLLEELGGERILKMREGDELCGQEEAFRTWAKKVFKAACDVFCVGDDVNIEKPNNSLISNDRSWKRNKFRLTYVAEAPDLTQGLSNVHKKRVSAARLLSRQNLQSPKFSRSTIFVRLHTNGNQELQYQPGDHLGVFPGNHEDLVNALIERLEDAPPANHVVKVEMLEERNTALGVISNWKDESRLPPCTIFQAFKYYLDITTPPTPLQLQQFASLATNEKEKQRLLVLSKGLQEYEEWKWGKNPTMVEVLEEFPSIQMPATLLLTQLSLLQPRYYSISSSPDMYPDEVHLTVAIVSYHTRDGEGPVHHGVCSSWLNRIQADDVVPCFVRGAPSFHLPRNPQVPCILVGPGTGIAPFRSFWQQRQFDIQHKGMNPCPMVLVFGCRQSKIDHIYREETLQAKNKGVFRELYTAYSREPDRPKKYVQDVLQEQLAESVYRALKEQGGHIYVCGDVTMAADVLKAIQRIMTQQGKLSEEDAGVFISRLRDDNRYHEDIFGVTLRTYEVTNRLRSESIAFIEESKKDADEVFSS

In the case of `Cc1cc(N)nc(COC[C@H]2C[C@H](OCc3cc(C)cc(N)n3)CN2)c1`, the Ki stood at 9.7 nM on Nitric oxide synthase 1, 6730 nM on Nitric oxide synthase 3 and 2870 nM in test [1].
